Reference: patent US20240075080A1, “USE OF LACTIC ACID BACTERIA TO INHIBIT METHANOGEN GROWTH OR REDUCE METHANE EMISSIONS” (Fonterra Co-Operative Group Limited, priority 2020, published 2024)

Legend:
[1] = test system: Methanobrevibacter boviskoreani JH1; assay: Plate-based methanogen bioassay of culture filtrates (Example 1, phosphate buffer); format: cell-based; settings: filtered supernatant 30% v/v (nisin 4 μM); 5 days at 39° C.; OD600 relative to methanogen without treatment; 16 wells
Description: The inoculum of an indicator methanogen strain (Methanobrevibacter boviskoreani JH1) for seeding the plate assay was grown in 9 mL BY medium (Joblin, 2005) supplemented with 0.2 mL of 3 M sodium formate, 0.2 mL of 10 M ethanol, 0.1 mL of Vitamin Solution (Janssen et al., 1997) and 0.1 mL of Coenzyme M Solution (Sigma Aldrich, 0.1 M) by syringe using anaerobic techniques. The head spaces of the tubes were pumped with pressurized O2-free CO2 to 180 kPa and the tubes were incubated at 39° C. without shaking until visible turbidity appeared after 3 to 5 days. Methane produced by the methanogen strain was measured by removing a sample of the headspace gases by syringe and injecting on to a gas chromatograph (GC; Aerograph Corporation, USA) equipped with a Thermal Conductivity Detector (TCD) and using nitrogen as the carrier gas. […] The cultures were routinely observed via wet mounts under fluorescence microscopy, and the methanogen strain appears as short ovoid-shaped rods that fluoresce green under ultraviolet (UV) illumination. […]
Cultures of L. rhamnosus HN001, and control strains (L. plantarum ATCC 8014, L. bulgaricus ATCC 11842) were grown overnight in MRS broth (Sigma-Aldrich) at 39° C. The optical density at 600 nm (OD600) was measured for each culture, and a sample of each was serially diluted through MRS medium and the dilutions plated onto MRS agar plates to determine viable counts. […]

[2] = test system: Methanobrevibacter boviskoreani JH1; assay: Plate-based methanogen bioassay of bacteriocin extract and supernatant samples (Example 2, MOPS buffer); format: cell-based; settings: for Mean % Growth JH1 / Mean % Inhibition: 30% v/v, sample 1 vs 0.9% NaCl, samples 2-7 vs MRS + NH4 lactate
Description: Cultures of the indicator methanogen strain were prepared according to item 1.1.1 of Example 1.
Cell and supernatant samples of L. rhamnosus HN001 were derived from a commercial manufacturing run of ˜5,000 L under standard production conditions. Four samples were used, consisting of: • Sample 1. L. rhamnosus HN001 cell sample, unwashed, freeze-dried, low pH extract. • Sample 2. L. rhamnosus HN001 supernatant sample, evaporated @50° C., 35% solids, ˜8× concentrated. • Sample 3. L. rhamnosus HN001 supernatant sample, evaporated @50° C., 45%+solids; ˜11× concentrated. • Sample 4. L. rhamnosus HN001 supernatant sample, freeze-dried.
These samples were kept frozen at −20° C. until needed. Prior to bioassay, the cell sample (Sample 1) was resuspended at 5% (wt/vol) in 0.9% NaCl, pH 6.8, and processed using the bacteriocin extraction method described in 2.1.3 below, resulting in an extract which was stored frozen at −20° C. until use. The evaporated supernatant samples (Samples 2 & 3) and the freeze-dried supernatant sample (Sample 4) were also resuspended at 5% (wt/vol) in 0.9% NaCl, pH 6.8 and filtered through Millex-GP 0.22 μm 25 mm diameter sterile filters (Millipore, Merck, Sigma-Aldrich NZ) into sterile N2-flushed Hungate tubes using 10 mL syringes. The headspace of the Hungate tubes were further flushed for 30 min with a sterile flow of N2 to remove traces of O2 from the samples.
Heat treatments were carried out with the L. rhamnosus HN001 supernatant which generated a further three samples as follows: • Sample 5. L. rhamnosus HN001 supernatant sample, heated at 72° C./15 sec. • Sample 6. L. rhamnosus HN001 supernatant sample, heated at 75° C./4 min. • Sample 7. L. rhamnosus HN001 supernatant sample, heated at 100° C./4 min.
After heat treatment, the samples were filtered through 0.22 μm filters as described above into sterile N2-flushed Hungate tubes and the headspace flushed with a sterile flow of N2. The samples were stored at −20° C. until screening in the indicator methanogen bioassay.
The resuspended culture was transferred into a 15 mL Falcon tube and the pH adjusted to ˜6.8 with 6M NaOH. The pH-adjusted culture sample was incubated at 70° C. for 45 minutes, then centrifuged for 15 min at 2600×g at 4° C. The supernatant was decanted and the cell pellet was resuspended in 8 mL 0.9% NaCl, pH 2. The pH of the resuspended pellet was checked and if necessary, 1M HCl was used to adjust the final pH to 2. The cells were incubated for 2 hours at 4° C. with slow agitation on a shaking platform. The cells were then centrifuged at 2600×g for 15 min at 4° C., and the supernatant collected into a fresh 15 mL Falcon tube. The pH of the supernatant was adjusted 6.8 with 1M NaOH. The pH-adjusted supernatant was filtered through a Millex-GP 0.22 μm 25 mm diameter sterile filter (Millipore, Merck, Sigma-Aldrich NZ) into a sterile N2-flushed Hungate tube using a 10 mL syringe, under sterile conditions. The filtered supernatant was frozen at −20° C. until use.
The bacteriocin extracts contained under anaerobic conditions in Hungate tubes were placed into an anaerobic chamber and allowed to thaw. All of the assay components except the bacteriocin extracts, were added and mixed in a sterile Hungate tube inside the anaerobic chamber in proportion to those indicated in Table 3 and then dispensed into wells of a multiwell 96 well plate containing the bacteriocin extracts. […]

[3] = nisin >1 μM added to alfalfa hay; cited from earlier work
ruminal methanogens = settings: mixed rumen in vitro assay; cited from earlier work

Substance | % methanogen growth [1] [%] | inhibition of growth of the indicator methanogen strain (in words) [2] | Mean % Growth JH1 ([2]; Assay 1) [%] | Mean % Inhibition ([2]; Assay 1) [%] | Mean % Growth JH1 ([2]; Assay 2) [%] | Mean % Inhibition ([2]; Assay 2) [%] | ratio of acetate to propionate production (in words) [3] | reduction of methane production (ruminal methanogens) [%]
Nisin | 12.2 | strong inhibition | 5.2 | 97.5 | 18.2 | 81.8 | reduced | 
bovicin HC5 |  |  |  |  |  |  |  | 50
